pIC50: −log10 of the molar value.

Chain of c-kit WT (P10721 26-976): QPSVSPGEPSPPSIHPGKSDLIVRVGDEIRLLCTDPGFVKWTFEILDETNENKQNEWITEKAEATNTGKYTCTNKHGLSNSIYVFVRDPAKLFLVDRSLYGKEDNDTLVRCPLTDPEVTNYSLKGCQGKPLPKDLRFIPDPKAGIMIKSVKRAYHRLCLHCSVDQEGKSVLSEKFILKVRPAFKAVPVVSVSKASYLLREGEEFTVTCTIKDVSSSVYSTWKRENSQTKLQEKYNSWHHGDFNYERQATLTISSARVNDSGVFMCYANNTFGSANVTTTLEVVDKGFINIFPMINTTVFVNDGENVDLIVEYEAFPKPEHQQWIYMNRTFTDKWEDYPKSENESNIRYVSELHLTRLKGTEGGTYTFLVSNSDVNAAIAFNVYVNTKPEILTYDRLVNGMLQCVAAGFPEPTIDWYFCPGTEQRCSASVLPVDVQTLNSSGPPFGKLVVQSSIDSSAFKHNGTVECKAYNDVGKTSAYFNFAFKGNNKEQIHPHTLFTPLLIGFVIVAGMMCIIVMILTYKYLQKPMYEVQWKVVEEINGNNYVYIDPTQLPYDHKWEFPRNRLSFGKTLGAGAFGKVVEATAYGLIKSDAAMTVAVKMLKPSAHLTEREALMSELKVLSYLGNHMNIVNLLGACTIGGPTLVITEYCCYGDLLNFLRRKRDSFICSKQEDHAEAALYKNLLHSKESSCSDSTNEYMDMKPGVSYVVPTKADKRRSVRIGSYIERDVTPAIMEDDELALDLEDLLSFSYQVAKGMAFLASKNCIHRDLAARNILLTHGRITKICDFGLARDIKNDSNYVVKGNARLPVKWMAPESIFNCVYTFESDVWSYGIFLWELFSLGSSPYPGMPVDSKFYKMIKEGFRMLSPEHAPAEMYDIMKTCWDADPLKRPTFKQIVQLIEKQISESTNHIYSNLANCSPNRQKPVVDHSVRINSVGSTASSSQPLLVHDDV

The assay deals with c-kit WT (Homo sapiens (Human), UniProt P10721). Put plainly: Proliferation assay (CellTiter-Blue) on BaF3 Kit WT cell line. The format is cell-based. The note with it: BaF3 Kit WT cell line (murine Ba/F3 expressing Human Kit WT, with murine SCF), 48 hours. The procedure:
Procedures of C-Kit WT Inhibition Assays:
Colorimetric cell proliferation and viability assay (reagent CellTiter-Blue purchased from Promega cat N°G8081) was performed on BaF3 Kit WT cell line.
A total of 2.10^4 cells/50 μl were seeded per well of a 96-wells plate. Treatment was initiated by addition of a 2× drug solution of ½ serial dilutions ranging from 0 to 10 μM. After incubating for 48 hours at 37° C., 10 μl of a ½ dilution of CellTiter-Blue reagent was added to each well and the plates were returned to the incubator for an additional 4 hours. The fluorescence intensity from the CellTiter-Blue reagent is proportional to the number of viable cells and data were recorded (544Ex/590Em) using a POLARstar OMEGA microplate reader (BMG LabteckSarl). A background control without cells was used as a blank. The positive control of the assay corresponds to the cell proliferation obtained in the absence of drug treatment (100% proliferation). Each sample was done in triplicate. The results were expressed as a percentage of the proliferation obtained in absence of treatment. All drugs were prepared as 20 mM stock solutions in DMSO and conserved at −80° C. Drug dilutions were made fresh in medium before each experiment. A DMSO control was included in each experiment.
The cell line expressing Human Kit WT was derived from the murine IL3-dependent Ba/F3 proB lymphoid cells. Ba/F3 Kit WT cells were maintained in RPMI medium containing 10% FCS and supplemented with 250 ng/ml of recombinant murine SCF.
(In general: Resazurin is reduced to fluorescent resorufin, in cell work by metabolically active cells.)
The compound `Cc1cc2nc(-c3cccc(N4CCN(C)CC4)c3)[nH]c2cc1Nc1nccc(-c2cccnc2)n1` [Compound 015, {6-Methyl-2-[3-(4-methyl-piperazin-1-yl)-phenyl]-3H-benzoimidazol-5-yl}-(4-pyridin-3-yl-pyrimidin-2-yl)-amine] gave a pIC50 of 5.00 to 6.00. As for `Cc1cc2nc(-c3cccc(OCCN(C)C)c3)[nH]c2cc1Nc1nccc(-c2cccnc2)n1` [Compound 016, {2-[3-(2-Dimethylamino-ethoxy)-phenyl]-6-methyl-3H-benzoimidazo1-5-yl}-(4-pyridin-3-yl-pyrimidin-2-yl)-amine], the pIC50 was 5.00 to 6.00. Compound `Cc1cc2nc(-c3cnc4ccccc4c3)[nH]c2cc1Nc1nccc(-c2cccnc2)n1` [Compound 017, (6-Methyl-2-quinolin-3-yl-3H-benzoimidazol-5-yl)-(4-pyridin-3-yl-pyrimidin-2-yl)-amine] showed a pIC50 of 5.00 to 6.00. For `Cc1cc2nc(-c3cccc(CN4CCOCC4)c3)[nH]c2cc1Nc1nccc(-c2cccnc2)n1` [Compound 018, [6-Methyl-2-(3-morpholin-4-ylmethyl-phenyl)-3H-benzoimidazol-5-yl]-(4-pyridin-3-yl-pyrimidin-2-yl)-amine], the pIC50 was 5.00 to 6.00.

As to `Cc1cc2nc(-c3cccc(F)c3)[nH]c2cc1Nc1nccc(-c2cccnc2)n1` [Compound 019, [2-(3-Fluoro-phenyl)-6-methyl-3H-benzoimidazol-5-yl]-(4-pyridin-3-yl-pyrimidin-2-yl)-amine], the negative logarithm of the IC50 (pIC50) is 5.00 to 6.00. `Cc1cc2nc(-c3cc(CN4CCOCC4)cc(C(F)(F)F)c3)[nH]c2cc1Nc1nc(-c2cccnc2)cs1` [Compound 020, [6-Methyl-2-(3-morpholin-4-ylmethyl-5-trifluoromethyl-phenyl)-3H-benzoimidazol-5-yl]-(4-pyridin-3-yl-thiazol-2-yl)-amine] gave a pIC50 of at least 6.00. The compound `Cc1cc2nc(-c3ccc(C(F)(F)F)cc3)[nH]c2cc1Nc1nc(-c2cccnc2)cs1` [Compound 021, [6-Methyl-2-(4-trifluoromethyl-phenyl)-3H-benzoimidazol-5-yl]-(4-pyridin-3-yl-thiazol-2-yl)-amine] gave a pIC50 of 5.00 to 6.00. For `Cc1cc2nc(Cc3ccccc3)[nH]c2cc1Nc1nc(-c2cccnc2)cs1` [Compound 022, (2-Benzyl-6-methyl-3H-benzoimidazol-5-yl)-(4-pyridin-3-yl-thiazol-2-yl)-amine] the value was 5.00 to 6.00; for `Cc1cc2nc(-c3cc(CN4CCCC4)cc(C(F)(F)F)c3)[nH]c2cc1Nc1nc(-c2cccnc2)cs1` [Compound 023, [6-Methyl-2-(3-pyrrolidin-1-ylmethyl-5-trifluoromethyl-phenyl)-3H-benzoimidazol-5-yl]-(4-pyridin-3-yl-thiazol-2-yl)-amine], 5.00 to 6.00; for `Cc1cc2nc(-c3cc(CN4CCCCC4)cc(C(F)(F)F)c3)[nH]c2cc1Nc1nc(-c2cccnc2)cs1` [Compound 024, [6-Methyl-2-(3-piperidin-1-ylmethyl-5-trifluoromethyl-phenyl)-3H-benzoimidazol-5-yl]-(4-pyridin-3-yl-thiazol-2-yl)-amine], at least 6.00. To `Cc1cc2nc(-c3cccc(C(F)F)c3)[nH]c2cc1Nc1nc(-c2cccnc2)cs1` [Compound 025, [2-(3-Difluoromethyl-phenyl)-6-methyl-3H-benzoimidazol-5-yl]-(4-pyridin-3-yl-thiazol-2-yl)-amine] belongs at least 6.00; to `Cc1cc2nc(-c3cccc(OC(F)(F)F)c3)[nH]c2cc1Nc1nc(-c2cccnc2)cs1` [Compound 026], at least 6.00; to `Cc1cc2nc(-c3ccc(C(F)(F)F)cc3)[nH]c2cc1Nc1nccc(-c2cccnc2)n1` [Compound 027, [6-Methyl-2-(4-trifluoromethyl-phenyl)-3H-benzoimidazol-5-yl]-(4-pyridin-3-yl-pyrimidin-2-yl)-amine], 5.00 to 6.00.

As for `Cc1cc2nc(-c3cc(CN4CCOCC4)cc(C(F)(F)F)c3)[nH]c2cc1Nc1nccc(-c2cccnc2)n1` [Compound 028], the negative logarithm of the IC50 (pIC50) is at least 6.00.

For `Cc1cc2nc(-c3cc(CN4CCCC4)cc(C(F)(F)F)c3)[nH]c2cc1Nc1nccc(-c2cccnc2)n1` [Compound 029, [6-Methyl-2-(3-pyrrolidin-1-ylmethyl-5-trifluoromethyl-phenyl)-3H-benzoimidazol-5-yl]-(4-pyridin-3-yl-pyrimidin-2-yl)-amine], the pIC50 is at least 6.00. `Cc1cc2nc(-c3cccc(C(F)F)c3)[nH]c2cc1Nc1nccc(-c2cccnc2)n1` [Compound 030, [2-(3-Difluoromethyl-phenyl)-6-methyl-3H-benzoimidazol-5-yl]-(4-pyridin-3-yl-pyrimidin-2-yl)-amine]: the negative logarithm of the IC50 (pIC50) was at least 6.00. To `Cc1cc2nc(-c3cccc(Cl)c3)[nH]c2cc1Nc1nccc(-c2cccnc2)n1` [Compound 031, [2-(3-Chloro-phenyl)-6-methyl-3H-benzoimidazol-5-yl]-(4-pyridin-3-yl-pyrimidin-2-yl)-amine] belongs at least 6.00; to `Cc1cc2nc(-c3cccc(Cl)c3)[nH]c2cc1Nc1nc(-c2cccnc2)cs1` [Compound 032, [2-(3-Chloro-phenyl)-6-methyl-3H-benzoimidazol-5-yl]-(4-pyridin-3-yl-thiazol-2-yl)-amine], at least 6.00; to `Cc1cc2nc(-c3cccc(C(F)(F)F)c3)[nH]c2cc1Nc1nc(-c2ccncc2)cs1` [Compound 033, [6-Methyl-2-(3-trifluoromethyl-phenyl)-3H-benzoimidazol-5-yl]-(4-pyridin-4-yl-thiazol-2-yl)-amine], at least 6.00. With `Cc1cccc(-c2nc3cc(C)c(Nc4nc(-c5ccncc5)cs4)cc3[nH]2)c1` [Compound 034, (6-Methyl-2-m-tolyl-3H-benzoimidazol-5-yl)-(4-pyridin-4-yl-thiazol-2-yl)-amine], the pIC50 was at least 6.00. As to `Cc1cc2nc(-c3cc(CN4CCCCC4)cc(C(F)(F)F)c3)[nH]c2cc1Nc1nccc(-c2cccnc2)n1` [Compound 035, [6-Methyl-2-(3-piperidin-1-ylmethyl-5-trifluoromethyl-phenyl)-3H-benzoimidazol-5-yl]-(4-pyridin-3-yl-pyrimidin-2-yl)-amine], the negative-log IC50 (pIC50) is at least 6.00. To `Cc1cc2nc(-c3cc(C(C)(C)C)ccc3OCCN(C)C)[nH]c2cc1Nc1nccc(-c2cccnc2)n1` [Compound 036, {2-[5-tert-Butyl-2-(2-dimethylamino-ethoxy)-phenyl]-6-methyl-3H-benzoimidazol-5-yl}-(4-pyridin-3-yl-pyrimidin-2-yl)-amine] belongs 5.00 to 6.00; to `Cc1cc2nc(-c3cccc(OC(F)(F)F)c3)[nH]c2cc1Nc1nccc(-c2cccnc2)n1` [Compound 037, [6-Methyl-2-(3-trifluoromethoxy-phenyl)-3H-benzoimidazol-5-yl]-(4-pyridin-3-yl-pyrimidin-2-yl)-amine], 5.00 to 6.00; to `Cc1cc2nc(-c3cccc(S(C)(=O)=O)c3)[nH]c2cc1Nc1nccc(-c2cccnc2)n1` [Compound 038, [2-(3-Methanesulfonyl-phenyl)-6-methyl-3H-benzoimidazol-5-yl]-(4-pyridin-3-yl-pyrimidin-2-yl)-amine], 5.00 to 6.00.

For `Cc1cc2nc(-c3cc(CN4CCN(C)CC4)cc(-c4cnco4)c3)[nH]c2cc1Nc1nccc(-c2cccnc2)n1` [Compound 039, {6-Methyl-2-[3-(4-methyl-piperazin-1-ylmethyl)-5-oxazol-5-yl-phenyl]-3H-benzoimidazol-5-yl}-(4-pyridin-3-yl-pyrimidin-2-yl)-amine], the negative logarithm of the IC50 (pIC50) is 5.00 to 6.00. `Cc1cc2nc(-c3cc(CN4CCN(C)CC4)cc(C(F)(F)F)c3)[nH]c2cc1Nc1nccc(-c2cccnc2)n1` [Compound 040, {6-Methyl-2-[3-(4-methyl-piperazin-1-ylmethyl)-5-trifluoromethyl-phenyl]-3H-benzoimidazol-5-yl}-(4-pyridin-3-yl-pyrimidin-2-yl)-amine] gave a negative logarithm of the IC50 (pIC50) of 5.00 to 6.00. `Cc1cc2nc(-c3ccc(C)c(C(F)(F)F)c3)[nH]c2cc1Nc1nccc(-c2cccnc2)n1` [Compound 041, [6-Methyl-2-(4-methyl-3-trifluoromethyl-phenyl)-3H-benzoimidazol-5-yl]-(4-pyridin-3-yl-pyrimidin-2-yl)-amine]: the pIC50 was at least 6.00. To `Cc1cc2nc(-c3cncc(C(F)(F)F)c3)[nH]c2cc1Nc1nccc(-c2cccnc2)n1` [Compound 042, [6-Methyl-2-(5-trifluoromethyl-pyridin-3-yl)-3H-benzoimidazol-5-yl]-(4-pyridin-3-yl-pyrimidin-2-yl)-amine] belongs 5.00 to 6.00. As to `Cc1cc2nc(-c3cccc(CN4CCN(C)CC4)c3)[nH]c2cc1Nc1nccc(-c2cccnc2)n1` [Compound 043, {6-Methyl-2-[3-(4-methyl-piperazin-1-ylmethyl)-phenyl]-3H-benzoimidazol-5-yl}-(4-pyridin-3-yl-pyrimidin-2-yl)-amine], the pIC50 is 5.00 to 6.00. `Cc1cc2nc(-c3cccc(CN4CCN(C)CC4)c3)[nH]c2cc1Nc1nc(-c2cccnc2)cs1` [Compound 044, {6-Methyl-2-[3-(4-methyl-piperazin-1-ylmethyl)-phenyl]-1H-benzoimidazol-5-yl}-(4-pyridin-3-yl-thiazol-2-yl)-amine]: the negative logarithm of the IC50 (pIC50) is 5.00 to 6.00.

One may read the pIC50 as the negative decadic logarithm of the IC50, by convention in mol/L. Read a high pIC50 as a small IC50.

These data come from patent publication US10202370B2, “Benzimidazole derivatives as selective proteine kinase inhibitors” (AB SCIENCE, priority 2013, dated 2019).
